Converted amounts (≈) assume the structure as drawn. Positions of bridges follow the written chain, without caps; N, C: chain ends. Residues, ends and D or L forms follow the SMILES beside them.
How the values were obtained:
[1] = test system: MCF7; experiment: Cytotoxicity against human MCF7 cells after 72 hrs by MTT assay; format: functional, cell-based; conditions: MCF7, 72 h
[2] = test system: MDA-MB-231; experiment: Cytotoxicity against human MDA-MB-231 cells after 72 hrs by MTT assay; format: functional, cell-based; conditions: MDA-MB-231, 72 h
[3] = test system: Caco-2; experiment: Cytotoxicity against human Caco2 cells after 72 hrs by MTT assay; format: functional, cell-based; conditions: Caco-2, 72 h
[4] = test system: BT-549; experiment: Cytotoxicity against human BT549 cells after 48 hrs by neutral red dye based assay; format: functional, cell-based; conditions: BT-549, 48 h
[5] = test system: SK-OV-3; experiment: Cytotoxicity against human SKOV3 cells after 48 hrs by neutral red dye based assay; format: functional, cell-based; conditions: SK-OV-3, 48 h
[6] = test system: KB; experiment: Cytotoxicity against human KB cells after 48 hrs by neutral red dye based assay; format: functional, cell-based
[7] = test system: MCF7; experiment: Cytotoxicity against human MCF7 cells after 48 hrs by MTT assay; format: functional, cell-based; conditions: mcf7
[8] = test system: A549; experiment: Cytotoxicity against human A549 cells after 48 hrs by MTT assay; format: functional, cell-based; conditions: a549
[9] = test system: SMMC-7721; experiment: Cytotoxicity against human SMMC7721 cells after 48 hrs by MTT assay; format: functional, cell-based; conditions: smmc-7721
[10] = test system: HeLa; experiment: Cytotoxicity against human HeLa cells after 48 hrs by MTS assay; format: functional, cell-based
[11] = test system: T-24; experiment: Cytotoxicity against human T24 cells after 48 hrs by MTS assay; format: functional, cell-based; conditions: T-24, 48 h
[12] = test system: A549; experiment: Cytotoxicity against human A549 cells after 48 hrs by MTS assay; format: functional, cell-based; conditions: A549, 48 h
[13] = test system: MCF7; experiment: Cytotoxicity against human MCF7 cells after 48 hrs by MTS assay; format: functional, cell-based; conditions: MCF7, 48 h
[14] = test system: HeLa; experiment: Cytotoxicity against human HeLa cells after 48 hrs by sulforhodamine B assay; format: functional, cell-based
[15] = test system: OVCAR-3; experiment: Cytotoxicity against human OVCAR3 cells assessed as reduction in cell viability after 72 hrs by CyQuant dye-based assay; format: functional; conditions: OVCAR-3, 72 h
[16] = test system: HeLa; experiment: Cytotoxicity against human HeLa cells; format: functional, cell-based
[17] = test system: A549; experiment: Cytotoxicity against human A549 cells; format: functional, cell-based
[18] = test system: HCT-116; experiment: Cytotoxicity against human HCT116 cells; format: functional, cell-based
[19] = test system: KB; experiment: Cytotoxicity against human KB cells by resazurin microplate assay; format: functional, cell-based
[20] = test system: NCI-H187; experiment: Cytotoxicity against human NCI-H187 cells by resazurin microplate assay; format: functional, cell-based
[21] = biological target: DNA topoisomerase I (Bos taurus, UniProt F1MN93); experiment: Inhibition of calf thymus DNA topoisomerase 1 assessed as decrease in relaxation of supercoiled pBR322 DNA after 30 mins by Genview nucleic acid staining based agarose gel electrophoresis
[22] = test system: HepG2; experiment: Cytotoxicity against human HepG2 cells after 24 hrs by MTT assay; format: functional, cell-based; conditions: HepG2, 24 h
[23] = test system: MCF7; experiment: Cytotoxicity against human MCF7 cells after 24 hrs by MTT assay; format: functional, cell-based; conditions: MCF7, 24 h
[24] = test system: A549; experiment: Cytotoxicity against human A549 cells after 24 hrs by MTT assay; format: functional, cell-based; conditions: A549, 24 h
[25] = Cytotoxicity against human KATO III cells after 72 hrs by MTT assay; format: functional, cell-based
[26] = test system: Vero; experiment: Cytotoxicity against African green monkey Vero cells by resazurin microplate assay; format: cell-based; conditions: Chlorocebus sabaeus
[27] = test system: MCF7; experiment: Cytotoxicity against human MCF7 cells by resazurin microplate assay; format: functional, cell-based
[28] = test system: HL-60; experiment: Cytotoxicity against human HL60 cells after 48 hrs by MTT assay; format: functional, cell-based; conditions: HL-60, 48 h
[29] = test system: A549; experiment: Cytotoxicity against human A549 cells by MTS assay; format: functional, cell-based
[30] = test system: MDA-MB-231; experiment: Cytotoxicity against human MDA-MB-231 cells by MTS assay; format: functional, cell-based
[31] = test system: HepG2; experiment: Cytotoxicity against human HepG2 cells by MTS assay; format: functional, cell-based
[32] = test system: HCT-116; experiment: Cytotoxicity against human HCT116 cells by MTS assay; format: functional, cell-based
[33] = test system: THP-1; experiment: Cytotoxicity against human THP1 cells by MTS assay; format: functional, cell-based
[34] = test system: U-251; experiment: Cytotoxicity against human U251 cells by MTT assay; format: functional, cell-based
[35] = test system: PC-3; experiment: Cytotoxicity against human PC3 cells by MTT assay; format: functional, cell-based
[36] = test system: HCT-15; experiment: Cytotoxicity against human HCT15 cells by MTT assay; format: functional, cell-based
[37] = test system: MCF7; experiment: Cytotoxicity against human MCF7 cells by MTT assay; format: functional, cell-based
[38] = test system: SK-LU-1; experiment: Cytotoxicity against human SKLU1 cells by MTT assay; format: functional, cell-based
[39] = test system: HepG2; experiment: Cytotoxicity against human HepG2 cells by MTT assay; format: functional, cell-based
[40] = test system: MDA-MB-231; experiment: Cytotoxicity against human MDA-MB-231 cells by MTT assay; format: functional, cell-based
[41] = test system: A549; experiment: Cytotoxicity against human A549 cells by MTT assay; format: functional, cell-based
[42] = test system: MOLT-3; experiment: Cytotoxicity against human MOLT3 cells by XTT assay; format: functional, cell-based
[43] = test system: HuCC-A1; experiment: Cytotoxicity against human HuCCa1 cells by MTT assay; format: functional, cell-based
[44] = test system: HL-60; experiment: Cytotoxicity against human HL60 cells by XTT assay; format: functional, cell-based

DNA topoisomerase I, sequence (F1MN93 whole entry): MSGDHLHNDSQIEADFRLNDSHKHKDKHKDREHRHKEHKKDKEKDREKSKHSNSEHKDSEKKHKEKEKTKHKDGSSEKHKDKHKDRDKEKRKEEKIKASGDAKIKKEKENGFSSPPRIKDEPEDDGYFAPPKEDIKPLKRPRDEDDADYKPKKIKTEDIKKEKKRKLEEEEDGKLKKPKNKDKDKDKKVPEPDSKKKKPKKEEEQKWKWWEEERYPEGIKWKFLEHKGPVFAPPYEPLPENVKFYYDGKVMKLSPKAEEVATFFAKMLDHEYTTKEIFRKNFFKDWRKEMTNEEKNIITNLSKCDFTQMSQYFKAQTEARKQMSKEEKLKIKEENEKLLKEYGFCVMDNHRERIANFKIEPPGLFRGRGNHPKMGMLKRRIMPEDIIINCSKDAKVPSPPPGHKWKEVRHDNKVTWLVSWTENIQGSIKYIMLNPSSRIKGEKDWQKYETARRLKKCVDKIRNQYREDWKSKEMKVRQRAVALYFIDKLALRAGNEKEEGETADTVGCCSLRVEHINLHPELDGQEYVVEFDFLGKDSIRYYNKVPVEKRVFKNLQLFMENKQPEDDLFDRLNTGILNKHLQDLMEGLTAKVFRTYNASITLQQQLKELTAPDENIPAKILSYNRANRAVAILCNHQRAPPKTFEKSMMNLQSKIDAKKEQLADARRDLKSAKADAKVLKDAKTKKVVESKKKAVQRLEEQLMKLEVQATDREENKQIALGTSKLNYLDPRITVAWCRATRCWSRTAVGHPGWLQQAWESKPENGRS

OCC(O)C(O)C(O)C(O)C(O)O[C@H]1[C@H](O)[C@@H](O)[C@H](O)O[C@@H]1CO (stereo partly specified)
EC50 [1]: 97.6 µM
EC50 [2]: 92.4 µM
EC50 [3]: 99.4 µM

C=C(CC[C@@H](C)[C@H]1CC=C2C3=C([C@@H](O)[C@H](OC(C)=O)[C@@]21C)[C@@]1(C)C[C@@H](OC(C)=O)[C@H](OC(C)=O)C(C)(C)[C@@H]1CC3)C(C)C
IC50 [4]: 1.82 µM
IC50 [5]: 1.32 µM
IC50 [6]: 0.18 µM

COc1cc(=O)oc2c1CO[C@@](C)(OC)[C@H]2C
IC50 [7]: 17.7 µM
IC50 [8]: 17.5 µM
IC50 [9]: 35.1 µM

COC(=O)c1cc(OC)cc(O)c1C(=O)c1c(O)cc(C)c2c1O[C@@](C)(CC(=O)[C@@]13C[C@H](O)[C@@H]4O[C@]4(CC=C(C)C)[C@@H]1O3)C2
IC50 [10]: 44.3 µM
IC50 [11]: 39.3 µM
IC50 [12]: 35.3 µM
IC50 [13]: 38.3 µM

C/C=C/[C@@H]1[C@@H]2C[C@@H](C)CC[C@@H]2[C@](C)(O)[C@@H]2Oc3c(-c4ccc(O)cc4)c[nH]c(=O)c3C(=O)[C@@H]12
IC50 [14]: 8.8 µM

CC1=CC[C@H]2C(C)(C)CCC[C@]2(C)[C@H]1C[C@@]12O[C@@H]1C(=O)C(CO)=C[C@H]2O
IC50 [15]: 0.5 µM

COC(=O)CC[C@@H](C(=O)OC/C=C(\C)CC/C=C(\C)CCC=C(C)C)N1Cc2c(cc(O)c(OC/C=C(\C)CC/C=C(\C)CCC=C(C)C)c2O)C1=O
IC50 [16]: 4.77 µM
IC50 [17]: 12 µM
IC50 [18]: 33 µM

COc1cc2oc(C)cc(=O)c2c(O)c1CC(C)c1ccco1 (stereo unspecified)
IC50 [19]: 43 µg/mL (≈ 137 µM)
IC50 [20]: 18 µg/mL (≈ 57.3 µM)

Cc1cc(O)c2c(c1)[C@H](O)[C@H]1C=C[C@H](O)[C@@H](O)[C@@H]1C2=O
IC50 [21]: 23 µM

CC[C@H](C)[C@@H]1NC(=O)[C@@H]2CSSC[C@H](NC(=O)[C@H](CC(C)C)NC(=O)[C@H](C(C)C)NC1=O)C(=O)N2 (cyclo(CCIVL); disulfide 1-2)
IC50 [22]: 36 µM
IC50 [23]: 0.65 µM
IC50 [24]: 2.42 µM

C[C@H]1[C@@H](/C=C2\C=CC(=O)O2)[C@H]2C=CC=C[C@@H]1O2
IC50 [25]: 1.95 to 40.2 µg/mL (≈ 8.47 to 174 µM)
IC50 [20]: 1.95 to 40.2 µg/mL (≈ 8.47 to 174 µM)
IC50 [26]: 1.95 to 40.2 µg/mL (≈ 8.47 to 174 µM)
IC50 [27]: 1.95 to 40.2 µg/mL (≈ 8.47 to 174 µM)

COc1ccc(O)c2c(=O)oc3cc(O)cc(C)c3c12
IC50 [28]: 85 µM

CCOC(=O)c1c(O)cc(O)cc1CCCCCCCC(C)O (stereo unspecified)
IC50 [29]: 13.3 µM
IC50 [30]: 10.1 µM
IC50 [31]: 12.5 µM
IC50 [32]: 11.9 µM
IC50 [33]: 39.7 µM

COC(=O)[C@@]12Oc3c(c(O)cc4c3[C@@H]3CC[C@]5(C4)C(=C(O)c4c(O)cc(C)cc4[C@@H]5O)C3=O)C(=O)C1=C(O)C=C[C@H]2O
IC50 [34]: 5.32 µM
IC50 [35]: 8.62 µM
IC50 [36]: 10.3 µM
IC50 [37]: 7.93 µM
IC50 [38]: 1.16 µM

COc1ccc2c(c1)N(CC=C(C)C)C(=O)[C@@]21C=C2C(=O)N3CCC[C@H]3C(=O)N2[C@H]1C=C(C)C
IC50 [39]: 14.1 µM
IC50 [40]: 35.5 µM

COCC1=C2C=C(C)OC=C2[C@H](O)[C@@](C)(O)C1=O
IC50 [41]: 46.5 µg/mL (≈ 184 µM)
IC50 [42]: 17.4 µg/mL
IC50 [43]: 48.1 µg/mL (≈ 191 µM)

CC1(C)CC[C@@H](O)[C@](C)(O)[C@@]12CC=C(C=O)CC2
IC50 [42]: 165 µM
IC50 [44]: 159 µM

Source: ChEMBL document CHEMBL4411258, “Novel natural compounds from endophytic fungi with anticancer activity” (Eur J Med Chem, 2018)
